Tested on: HCT116 p53^−/− tumors
Test: xenograft mouse model, HCT116 p53^−/− tumors
Format: in vivo, BALB/c mice
Conditions: four intraperitoneal injections of 50 mg/kg, preliminary
Experimental: FIG. 10 illustrates the antitumor activity of SLMP53-1 in vivo. BALB/c mice, 4-6 weeks old, were implanted subcutaneous xenografts using 1.5×10^6 HCT116 p53^+/+ or HCT116 p53^−/− cells. The treatment was initiated when palpable tumors were established (14 days after the cells were injected), and consisted in 4 intraperitoneal injections (2× per week) of vehicle (control) or 50 mg/kg of SLMP53-1. Xenografts were measured during 24 days. Relative tumor volumes were plotted for control and treated groups by dividing the average tumor volume for each data point by average starting tumor volume.
Currently, the toxicity and antitumor activity of SLMP53-1 are under study in vivo using xenograft mouse models. […] Because p53-null tumors were not suppressed, it was confirmed that SLMP53-1 inhibited the tumor growth in a wt p53-dependent manner.

C[C@]12OC[C@H](Cc3c[nH]c4ccccc34)N1C(=O)c1ccccc12 [SLMP53-1]
tumor growth: without apparent effects

Source: patent publication US9732091B2, “Tryptophanol-derived oxazoloisoindolinones: small-molecule P53 activators” (UNIVERSIDADE DO PORTO, priority 2013, dated 2017)
